Measured values reported in US7960614B2, “Plant transformation and selection” (Arborgen, LLC, priority 2003, dated 2011).

Legend:
[1] = system: 10 different loblolly and hybrid pine lines; assay: Growth on casein hydrolysate or mixture AA4 with 5-methyltryptophan (FIG. 11); assay type: cell-based, Pinus taeda and hybrid pine; conditions: 0, 3, 10, or 30 mg/L 5-methyltryptophan
Text: In another experiment, 10 different loblolly and hybrid pine lines were used, from eight genetically diverse families. These lines were initiated and cryopreserved as described in Example 26, and were placed into uniform suspension cultures and plated onto the respective media treatments as described in Example 26. Media for the experiment comprised DCR2 maintenance media containing either 0.5 g/L casein hydrolysate, 0.5 g/L of the derived mixture AA4 having the proportions shown in Table 24, or lacking both casein and the amino acid mixtures, and each of these treatments were provided with each of 0, 3, 10, or 30 mg/L treatments of 5-methyltryptophan (5MT). The vertical axis is the total weight increase in grams after the respective period.

loblolly cell lines [2] = assay: asa2 (pWVC33) selection on Geneticin, 5MT or AMT, PCR check (Example 32); assay type: cell-based, Pinus taeda; conditions: Geneticin 15 mg/L with casein hydrolysate, 5MT or AMT 30 mg/L with AA4
Procedure: Two loblolly cell lines were prepared for transformation using the method of Example 28, and co-cultivated with Agrobacterium tumefaciens transformed with pWVC33 (FIG. 7) as described in Example 28. Following eradication of Agrobacterium, each cell line was equally divided onto 6 plates each of 5 different selection media containing either casein hydrolysate and Geneticin at 15 mg/L, or amino acid mixture AA4 and either 5-methyltryptophan (5MT) at 30 or 50 mg/L or […] (AMT) at 30 or 50 mg/L. The results are show in FIG. 12. Putatively transformed sublines grow on Geneticin-containing plates and on both selection treatments where 30 mg/L of the methylated tryptophan selective analog was incorporated.

loblolly pine cell lines = assay: als/Ally selection on medium without casein hydrolysate, PCR verification (Example 28); assay type: cell-based, Pinus taeda; conditions: selection on 50 nM or 100 nm Ally, no casein hydrolysate; seven sublines tested by PCR
Text: In this example, five loblolly pine cell lines from four elite families were transformed with plasmids containing the als selectable marker, and selection was done on a sulfonylurea-containing selection medium modified to exclude casein hydrolysate. The five pine cell lines were initiated as described in Example 26, except that one of the five lines was an elite loblolly cross grown in an International Paper seed orchard in Georgia. The lines were cryopreserved, retrieved, and cultured as uniform suspensions as described in Example 26.
To prepare for gene transfer, polyester membrane supports were sterilized by autoclaving and placed in separate sterile Buchner funnels, and for each of six replicate plates per cell line, one to three milliliters of pine embryogenic suspension was pipetted onto each support such that the embryogenic tissue was evenly distributed. The liquid medium was suctioned from the tissues and each support bearing the embryogenic tissue was placed on gelled DCR3 preparation medium for Agrobacterium inoculation according to the methods described in U.S. Patent Publication No. 20020100083. […]

loblolly cell lines [3] = assay: pWVC23 transformants selected on Ally, checked on Geneticin and by PCR (Example 30); assay type: cell-based, Pinus taeda; conditions: Ally at either 50 or 100 nM
Procedure: Two loblolly cell lines were prepared for transformation using the same methods of Example 28, and co-cultivated with Agrobacterium tumefaciens transformed with pWVC23(FIG. 3), also as described in Example 28. Following eradication of Agrobacterium, each cell line was equally divided onto selection medium containing either Geneticin at 15 mg/L or Ally at either 50 or 100 nM. After putatively transformed sublines were grown to a sufficient size, nine sublines grown on Ally-containing media were transferred to Geneticin-containing media to check transformation status rapidly before PCR. 100% of these lines are able to grow on Geneticin-containing media. Five of these lines were then checked with PCR using the six primer pairs described in Example 28. 100% of these lines were confirmed postive transformants by PCR.

[4] = system: 13 loblolly and hybrid pine lines; assay: Growth on synthetic casein hydrolysate mixtures with Ally (FIG. 10); assay type: cell-based, Pinus taeda and hybrid pine; conditions: media with amino acid mixture in which branched chain amino acids are absent; Ally 0, 10, 30, or 50 mM
Procedure: The synthetic mixtures were tested in 13 loblolly and hybrid pine lines from 7 genetically diverse families. These lines were initiated and cryopreserved as described in Example 26, and were placed into uniform suspension cultures and plated onto the respective media treatments as described in Example 27. Media for the experiment comprised DCR2 maintenance media containing either 0.5 g/L casein hydrolysate, 0.5 g/L of one of the derived mixtures having the proportions shown in Table 24, or lacking both casein and the amino acid mixtures, and each of these treatments were provided with each of 0, 10, 30, or 50 mM treatments of the herbicide Ally® (commercially available from Dupont™).

Compound | reduction in growth, FIG. 11 [1] | False positive Frequency (loblolly cell lines [2]) | PCR confirmed positive (number of lines) (loblolly cell lines [2]; of 12, 8, 22 lines PCR tested) | false positive rate (loblolly pine cell lines) | lines confirmed positive transformants by PCR (loblolly cell lines [3]; five lines checked) | Ally-selected sublines able to grow on Geneticin-containing media (loblolly cell lines [3]; nine sublines) | growth of cells, FIG. 10 [4]
Cc1ccc2[nH]cc(C[C@H](N)C(=O)O)c2c1 [5MT30, 5-methyltryptophan] | only in the absence of tryptophan is it possible to obtain satisfactory reduction in growth | 0.13 | 7 | – | – | – | –
COC(=O)c1ccccc1S(=O)(=O)NC(=O)Nc1nc(C)nc(OC)n1 [Ally] | – | – | – | 14% | 100% | 100% | growth is retarded or stopped to a significant degree
